Data on twelve compounds can be found in ChEMBL document CHEMBL1201862, “PubChem BioAssay data set” (2004).

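Results reflect a 48-hour exposure of cells in 96-well plates to compound at five concentrations. At the GI50, growth is halved.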 The source made the active and inactive calls. No stated cut-off is given here; in the data, active = GI50 up to about 1.1 µM and inactive = higher. Bounds are passed on as bounds.

Test systems include HCC 2998; HCT-116; ACHN; PC-3; EKVX; SNB-75; IGROV-1; U-251; NCI-H226; CAKI-1; SK-OV-3; SF-268; MCF7; UO-31; A549; NCI-H522; Hs-578T; RPMI-8226.
Common to all, as to test: NCI tumour cell line growth inhibition, 48 h

Turning to `c1cncc(CSc2ncnc3[nH]cnc23)c1`, the GI50 in the experiment with HCC 2998, with HCT-116, with ACHN, in the experiment on PC-3, with EKVX and in the experiment on SNB-75 was > 100 µM (inactive) in each case. Also, the GI50 in the experiment on IGROV-1, in the experiment on U-251, with NCI-H226, in the experiment with CAKI-1, in the experiment with SK-OV-3 and in the experiment on SF-268 was > 100 µM (inactive) in each case. Also, the GI50 in the experiment on MCF7, in the experiment on UO-31, in the experiment with A549, with NCI-H522 and in the experiment with Hs-578T was > 100 µM (inactive) throughout.
Regarding `O=c1[nH]c(=O)n(COC(CO)CO)cc1-c1ccccc1`, the GI50 in the experiment with HCC 2998, with HCT-116, in the experiment on ACHN, in the experiment with PC-3, with EKVX and in the experiment with SNB-75 was > 100 µM (inactive) in each case. Moreover, the GI50 with IGROV-1, in the experiment on U-251, with CAKI-1, in the experiment on SK-OV-3, in the experiment with SF-268 and in the experiment with MCF7 was > 100 µM (inactive) throughout. Further, the GI50 with UO-31, in the experiment on A549, with NCI-H522, in the experiment on Hs-578T and in the experiment with RPMI-8226 was > 100 µM (inactive) each time.
In the case of `O=C1CCCCCC1CC(Sc1ccccc1)Sc1ccccc1` (configuration not stated), the GI50 is > 100 µM (inactive) in the experiment with HCC 2998; > 100 µM (inactive) with ACHN; 51.6 µM (inactive) with PC-3; > 100 µM (inactive) in the experiment with EKVX; 49.3 µM (inactive) in the experiment with SNB-75; > 100 µM (inactive) with IGROV-1. For the same compound, the GI50 in the experiment with U-251 is > 100 µM (inactive); in the experiment on NCI-H226 it was > 100 µM (inactive); with CAKI-1, > 100 µM (inactive); in the experiment with SK-OV-3, > 100 µM (inactive); in the experiment on SF-268, > 100 µM (inactive); in the experiment with MCF7, 72.3 µM (inactive). Moreover, the GI50 with UO-31 was 88.5 µM (inactive); with A549 it was 39.8 µM (inactive); in the experiment with NCI-H522, 65.3 µM (inactive); in the experiment on Hs-578T, 96.2 µM (inactive); with RPMI-8226, 37.6 µM (inactive).
For the compound `CCOP(=O)(CC1CC(O)(CNc2cc(Cl)nc(N)n2)C1)OCC` (configuration not stated), the GI50 in the experiment with HCC 2998, with HCT-116, with ACHN, in the experiment with PC-3, in the experiment with EKVX and in the experiment with SNB-75 was > 100 µM (inactive) each time. In addition, the GI50 in the experiment on IGROV-1, in the experiment on U-251, in the experiment on NCI-H226, in the experiment on CAKI-1, with SK-OV-3 and in the experiment on SF-268 was > 100 µM (inactive) throughout. In addition, the GI50 in the experiment on MCF7, with UO-31, in the experiment with A549, in the experiment on NCI-H522, in the experiment with Hs-578T and in the experiment on RPMI-8226 was > 100 µM (inactive) throughout.
As to `[N-]=[N+]=NCN1C(=O)C2C3C=CC(C2C1=O)C1C2C(=O)N(CN=[N+]=[N-])C(=O)C2C31` (configuration not stated), the GI50 in the experiment with HCC 2998 is 11.7 µM (inactive); with HCT-116 it was > 100 µM (inactive); in the experiment with ACHN it was > 100 µM (inactive); in the experiment on PC-3 it was > 100 µM (inactive); with EKVX it was > 100 µM (inactive); in the experiment with IGROV-1, > 100 µM (inactive). In addition, the GI50 with CAKI-1, in the experiment with SF-268, with MCF7, in the experiment on UO-31, with A549 and with NCI-H522 was > 100 µM (inactive) each time. Further, the GI50 in the experiment with Hs-578T and in the experiment on RPMI-8226 was > 100 µM (inactive) each time.
Take `O=S(=O)(c1cc(Cl)ccc1Cl)N1CCN(c2ccc(Cl)c(Cl)c2)CC1`: the GI50 with HCC 2998 was 62.1 µM (inactive); in the experiment on HCT-116, 34.6 µM (inactive); in the experiment with ACHN, 37 µM (inactive); with PC-3 it was 99.8 µM (inactive); with EKVX, 32.2 µM (inactive); with SNB-75 it was 14 µM (inactive). Moreover, the GI50 in the experiment with IGROV-1 was 36.8 µM (inactive); in the experiment with U-251, 21.7 µM (inactive); in the experiment with NCI-H226, 21.7 µM (inactive); with CAKI-1, 22 µM (inactive); in the experiment on SF-268, 27.3 µM (inactive); with MCF7, > 100 µM (inactive). In addition, the GI50 with UO-31 was 35.8 µM (inactive); in the experiment with A549 it was 35.7 µM (inactive); in the experiment with NCI-H522, 18.5 µM (inactive); in the experiment with Hs-578T, 29.9 µM (inactive); with RPMI-8226, > 100 µM (inactive).
In the case of `CC(C)C1(Cl)CCC2C3(C)CCCC(C)(C(=O)O)C3CC(Cl)C2(Cl)C1Cl` (configuration not stated), the GI50 in the experiment on HCC 2998 is 27.4 µM (inactive); in the experiment with HCT-116 it was 28.2 µM (inactive); in the experiment with ACHN, 43.2 µM (inactive); in the experiment on PC-3, 34.6 µM (inactive); in the experiment on EKVX, 21.5 µM (inactive); in the experiment on IGROV-1, 54.7 µM (inactive). Also, the GI50 with U-251 was 20.7 µM (inactive); in the experiment with NCI-H226, 20.9 µM (inactive); in the experiment on CAKI-1, 43 µM (inactive); in the experiment with SF-268 it was 45 µM (inactive); in the experiment with MCF7, 30.5 µM (inactive); with UO-31, 32.1 µM (inactive). Moreover, the GI50 in the experiment with A549 is 23.5 µM (inactive); in the experiment on NCI-H522 it was 20 µM (inactive); in the experiment with Hs-578T it was 37.5 µM (inactive); in the experiment with RPMI-8226 it was 20.8 µM (inactive).
Consider `Cc1cccc(C)c1NC(=S)NC=C(C(N)=O)C(N)=O`, for which the GI50 in the experiment on HCC 2998, in the experiment with HCT-116, in the experiment on ACHN, with PC-3, with EKVX and in the experiment on SNB-75 was > 100 µM (inactive) each time. Also, the GI50 with IGROV-1, in the experiment with U-251, with NCI-H226, in the experiment on CAKI-1, with SK-OV-3 and in the experiment with SF-268 was > 100 µM (inactive) throughout. The GI50 with MCF7, in the experiment with UO-31, with A549, in the experiment on NCI-H522, in the experiment with Hs-578T and in the experiment on RPMI-8226 was > 100 µM (inactive) each time.
On to `CC1=NN(c2cccc(Cl)c2)C2(SCC(=O)N2c2nc3ccccc3s2)/C1=C\c1cccs1` (configuration not stated), for which the GI50 with HCC 2998 is 16.6 µM (inactive); in the experiment with HCT-116, 20.6 µM (inactive); with ACHN it was 27.9 µM (inactive); in the experiment on PC-3, 25.5 µM (inactive); in the experiment with EKVX, 14.6 µM (inactive); with SNB-75, 17.5 µM (inactive). In addition, the GI50 with IGROV-1 is 27.3 µM (inactive); with U-251 it was 20.3 µM (inactive); in the experiment with NCI-H226 it was 20.3 µM (inactive); with CAKI-1 it was 29.7 µM (inactive); in the experiment with SF-268, 18.9 µM (inactive); in the experiment with MCF7, 27.4 µM (inactive). Also, the GI50 was 22.4 µM (inactive) in the experiment on UO-31; 33.8 µM (inactive) in the experiment on A549; 21.2 µM (inactive) in the experiment on NCI-H522; 22.5 µM (inactive) in the experiment on Hs-578T; 17.7 µM (inactive) in the experiment on RPMI-8226.
As to `Cc1ccc(S(=O)(=O)NC(=O)NNc2ccc(F)cc2)cc1`, the GI50 in the experiment on HCC 2998, in the experiment with HCT-116, in the experiment with ACHN, with PC-3, with EKVX and in the experiment with IGROV-1 was > 100 µM (inactive) in each case. The GI50 in the experiment on U-251, in the experiment with NCI-H226, in the experiment on CAKI-1, in the experiment on SK-OV-3, in the experiment with SF-268 and with MCF7 was > 100 µM (inactive) in each case. The GI50 in the experiment on UO-31 was > 31.6 µM (inactive); in the experiment on A549, > 100 µM (inactive); with NCI-H522 it was > 100 µM (inactive); in the experiment with Hs-578T, > 100 µM (inactive); with RPMI-8226, > 27 µM (inactive).
Take `COC(=O)CCC(NC(=O)OC(C)(C)C)C(=O)NC(Cc1ccc(NC(=O)CCCC(C)=O)cc1)C(=O)NC(CCC(=O)OC)C(=O)OC` (configuration not stated): the GI50 in the experiment with HCC 2998, with HCT-116, with ACHN, in the experiment with PC-3, in the experiment on EKVX and in the experiment with SNB-75 was > 100 µM (inactive) throughout. Also, the GI50 with IGROV-1, in the experiment on NCI-H226, in the experiment on CAKI-1, in the experiment with SK-OV-3, with SF-268 and with MCF7 was > 100 µM (inactive) throughout. The GI50 in the experiment on UO-31, with A549, in the experiment on NCI-H522, with Hs-578T and in the experiment on RPMI-8226 was > 100 µM (inactive) each time.
As for `Nc1nc(Cl)c(CO)c(NCC2(CO)CC(CCc3ccccc3)C2)n1` (configuration not stated), the GI50 was 33.3 µM (inactive) with HCC 2998; 0.979 µM (active) in the experiment with HCT-116; 24.4 µM (inactive) in the experiment on ACHN; 51.3 µM (inactive) in the experiment with PC-3; 19.2 µM (inactive) in the experiment on EKVX; 16.1 µM (inactive) in the experiment on SNB-75. Moreover, the GI50 in the experiment on IGROV-1 was > 10 µM (inactive); in the experiment on U-251, 26.2 µM (inactive); in the experiment with NCI-H226, 13.3 µM (inactive); with CAKI-1, 37.8 µM (inactive); in the experiment with SF-268 it was 43.1 µM (inactive); in the experiment on MCF7, 14.3 µM (inactive). Besides, the GI50 is 17.3 µM (inactive) in the experiment on UO-31; 18.6 µM (inactive) in the experiment with A549; 15.7 µM (inactive) in the experiment with NCI-H522; > 10 µM (inactive) in the experiment on Hs-578T; 3.5 µM (inactive) in the experiment on RPMI-8226.
